“Also recorded” adds a separate entry of the source. Like-named read-outs stand apart in the source and are kept apart here.
What was measured:
[1] = target: A/HK-H275Y neuraminidase (Influenza A virus (A/Hong Kong/2369/2009(H1N1)), UniProt C6KQ69); assay: biochemical
[2] = system: A/Hong Kong/2369/2009 (H1N1) H275Y (A/HK-H275Y) virus
[3] = system: Influenza A/Mississippi/03/2001 (H1N1) H275Y (A/MS-H275Y) virus
[4] = system: influenza A/HK-H275Y virus neuraminidase; conditions: NA-Star assay, ref Nguyen et al., 2010a; cited from earlier work
[5] = target: A/MS-H275Y neuraminidase (Influenza A virus (A/Mississippi/03/2001(H1N1)), UniProt C7FPR5, H275Y); format: biochemical
[6] = system: influenza A/MS-H275Y virus; design: species or system BALB/c mice; conditions: mouse, in vivo
[7] = system: influenza A/HK-H275Y virus; design: species or system BALB/c mice; conditions: mouse, in vivo
[8] = system: influenza A/WSN/33 (H1N1) H275Y virus; conditions: A/WSN/33 (H1N1) H275Y in mice, up to 10 mg/kg/day; ref Baz et al. (2009); cited from earlier work
[9] = read-out: EC50 (50% virus-inhibitory concentration)

| Compound | EC50 [2] [µM] | EC50 [3, 9] [µM] | IC50 [4] [µM] | sensitivity of the viral neuraminidases (in words) [5] | antiviral activity in cell culture (in words) [2] | antiviral activity in cell culture (in words) [3] | survival effect (in words) [6] | further results |
| --- | --- | --- | --- | --- | --- | --- | --- | --- |
| CCC(CC)O[C@@H]1C=C(C(=O)O)C[C@H](N)[C@H]1NC(C)=O [Oseltamivir Carboxylate, Oseltamivir carboxylate] | > 100 | > 100 | 78 | resistant | – | – | – | IC50 ([1]; IC50): > 0.1 µM |
| Peramivir | 7.9 ± 3 | 8.1 ± 5.2 | 9.2 | resistant | decreased sensitivity | decreased sensitivity | – | IC50 [1]: 0.029 ± 0.0023 µM; SI (CC50/EC50) [2]: >12; SI (CC50/EC50) [3]: >12; EC50 ([3]; read-out: inhibitory concentration against the H275Y viruses in cell culture): ~8 µM; IC50 [5]: 0.038 ± 0.001 µM |
| CC(N)C12CC3CC(CC(C3)C1)C2 (stereo not shown) [Rimantadine] | > 22 | 0.01 ± 0.003 | – | – | not active | – | no significant effect | SI (CC50/EC50) [2]: 0; SI (CC50/EC50) [3]: 2200 |
| CC(=O)N[C@H]1[C@H]([C@H](O)[C@H](O)CO)OC(C(=O)O)=C[C@@H]1N=C(N)N [Zanamivir] | 0.36 ± 0.58 | 0.24 ± 0.08 | 0.43 | sensitive | highly sensitive | highly sensitive | ineffective; also recorded: delayed the time to death significantly but did little to prevent mortality | IC50 ([1]; IC50): 0.0009 ± 0.0002 µM |
| NC12CC3CC(CC(C3)C1)C2 [Amantadine] | > 100 | 0.3 ± 0.05 | – | – | not active | – | No significant effect | survival effect (in words) ([6]; po, 3 mg/kg/day): no effect; protection from death ([6]; po, 30 mg/kg/day): 60%; protection from death ([6]; po, 100 mg/kg/day): 100%; protective activity ([6]; po, 100 mg/kg/day): 100% |
| NC(=O)c1ncn([C@@H]2O[C@H](CO)[C@@H](O)[C@H]2O)n1 [Ribavirin] | 33 ± 13 | 25 ± 4.6 | – | – | – | – | not effective | lung virus titer versus placebo (in words) ([7]; po): significantly reduced virus titers; also recorded: not significantly lower than placebo; body weight change (in words) ([7]; po, 75 mg/kg/day): Weight decline was least severe; day of infection after which weight gain started ([7]; po, 75 mg/kg/day): > 8 days; survival effect (in words) ([7]; po, 75 mg/kg/day): fully protective |
| CCOC(=O)C1=C[C@@H](OC(CC)CC)[C@H](NC(C)=O)[C@@H](N)C1 [Oseltamivir, Oseltamivir phosphate] | – | – | – | – | resistant | resistant | not active | efficacy in treating the infection (in words) [8]: ineffective; mortality rate [8]: 75%; body weight change (in words) [7]: did not fall as rapidly as in the lower dosage and placebo groups; day of infection after which body weights began to increase [7]: > 10 days; survival effect (in words) [7]: not significantly effective; benefit (in words) ([7]; po, 25 mg/kg/day): no benefit; survival (protection from death) ([7]; po, 100 mg/kg/day): 50%; survival (protection from death) ([7]; po, 300 mg/kg/day): 70%; protection [6]: up to 60%; survival effect (in words) ([6]; po): ineffective; benefit (in words) ([6]; po, 25 mg/kg/day): no benefit; survival (protection from death) ([6]; po, 100 mg/kg/day): 30%; survival (protection from death) ([6]; po, 300 mg/kg/day): 60% |

— article PMC3465485 (Antiviral research, 2012)
